In brackets after ≈: the same amount, converted by molar mass. Like-named read-outs stand apart in the source and are kept apart here. Each block holds one compound with its values, some of them ahead of it.
Experiments:
[1] = pKa of side-chain group; type: physicochemical; settings: guanidinoxy group
[2] = Study on polymorphism, solvent scheme 1 (suspension); type: physicochemical; settings: 40° C. in the dark for 2 days, XRPD
Experimental: 1. Three samples of about 35 mg of the compound of formula (I) were weighed and placed into 1.5 mL borosilicate glass bottles, respectively, followed by addition of 200 μL of solvent (see Table 2 for the solvent scheme). The obtained mixture was mixed evenly with ultrasound and then placed on a thermostatic oscillator, stirred at 40° C. in the dark for 2 days, and centrifuged quickly. The obtained solid was subjected to XRPD detection (wet product), and then dried in a vacuum dryer at 30° C. for about 15 hours. The obtained dry product was subjected to XPRD detection (dry product).

[3] = Study on polymorphism, solvent scheme 2 (dissolved, evaporated to dryness); type: physicochemical; settings: 40° C. 2 days, XRPD
Experimental: 2. Three samples of about 35 mg of compound of formula (I) were weighed and placed into 1.5 mL borosilicate glass bottles, respectively, followed by addition of 600 μL of a solvent (see Table 3 for the solvent scheme). The obtained mixture was mixed evenly with ultrasound and then placed on a thermostatic oscillator, stirred at 40° C. in the dark for 2 days. Then the samples was placed into a fume hood and evaporated to dryness. The obtained samples were subjected to XRPD detection (wet product). The samples were placed in a vacuum dryer and dried at 30° C. for about 15 hours. The obtained dried samples were subjected to XRPD detection (dry product).

[4] = test system: KPC-2 carbapenemase-producing Klebsiella Pneumoniae; assay: In vitro synergistic inhibitory concentration (SIC) assay, broth microdilution MIC; type: cell-based; settings: for drug resistance rate / sensitive rate: by the S/R criteria; for MIC50 / MIC90: Klebsiella pneumoniae
Experimental: (§1) The minimum inhibitory concentration (MIC) of the compound of formula (I) against clinically isolated carbapenemase-producing strains was determined by the broth microdilution method.
(§2) 1. Drug susceptibility test: the MIC of commonly used antibacterial drugs against clinically isolated bacteria was determined by the broth microdilution method according to the antimicrobial susceptibility test method described in the 2016 edition of the U.S. Clinical and Laboratory Standards Institute (CLSI) document.
(§3) 2. Strains: 8 KPC-2 carbapenemase-producing strains, 8 NDM-1 metalloenzyme-producing strains, 6 OXA carbapenemase-producing strains, and all strains were clinically isolated Klebsiella pneumoniae.
(§4) 4. Quality control strains: the quality control strains for the drug susceptibility test included Escherichia coli ATCC 25922 and ATCC 35218.

[5] = test system: NDM-1 carbapenemase-producing Klebsiella Pneumoniae; assay: as above; type: cell-based; settings: for MIC50 / MIC90: Klebsiella pneumoniae; for MIC50 / MIC90 / drug resistance rate / sensitive rate / MIC range: NDM-1, 8 strains; for MIC50 / MIC90 / MIC range: enzyme inhibitor fixed at 4 g/mL (so in the source); for drug resistance rate / sensitive rate: by the S/R criteria
Experimental: as §1, §2, §3, §4

[6] = test system: OXA-181 carbapenemase-producing Klebsiella Pneumoniae; assay: as above; type: cell-based; settings: for MIC50 / MIC90: Klebsiella pneumoniae; for drug resistance rate / sensitive rate: by the S/R criteria
Experimental: as §1, §2
2. […]
as §4

[7] = test system: Klebsiella pneumoniae (ATCC BAA-1705, KPC-2); assay: Mouse lung infection model; type: in vivo; settings: female CD-1 mice, ip, with ceftazidime, FIG. 5
Experimental: Female CD-1 mice of about 7 weeks old, weighing 26-28 g; cyclophosphamide was injected at a dose of 150 mg/kg 4 days before infection, and further 100 mg/kg 1 day before infection; the bacteria for infection was Klebsiella pneumoniae (ATCC BAA-1705, KPC-2). The compound of formula (I) and the reference compound OP-0595 were synthesized in the laboratory.
Female CD-1 mice were infected with Klebsiella pneumoniae by intranasal instillation. Each mouse was instilled with 50 μL of bacterial liquid through nasal cavity at a dose of 3.14E+07 CFU per mouse. At 2 h, 4 h, 6 h and 8 h after infection, each group of mice were treated with a corresponding compound or a combination of compounds by intraperitoneal injection.
At 10 h after infection, the mice in groups 1, 2 and 3 were euthanized, and the lungs were taken out and placed in 50 mL centrifuge tubes containing 10 mL of sterile normal saline, the tubes were placed on wet ice and transferred to BSL-2 laboratory for CFU counting. […]
The lungs were ground with an IKA T10 homogenizer (the maximum speed was 20S, repeated once). […] After 24 hours, the plate was taken out and the number of single colonies grown in each homogenate with a gradient dilution on the plate was counted, and the amount of bacterial load in the lung of each mouse was calculated.

[8] = Hygroscopicity by dynamic vapor sorption (DVS); type: physicochemical
Experimental: 1.4 Dynamic Vapor Sorption (DVS) Instrument model: SMS DVS Advantage dynamic vapor sorption analyzer Detection conditions: samples (10 mg to 15 mg) were placed in a DVS sample tray for detection. The detailed DVS parameters are as follows: Temperature: 25° C. Equilibrium: dm/dt=0.01%/min (shortest: 10 min, longest: 180 min) Drying: 120 minutes at 0% RH RH (%) gradient for testing: 10% RH (%) gradient range for testing: 0%-90%-0% The hygroscopicity was evaluated using the following scales: [table] Experimental Method: a sample (10-15 mg) was placed in a DVS sample tray for testing, and analyzed by dynamic vapor sorption (DVS) method.

[9] = Thermal gravimetric analysis (TGA); type: physicochemical
Experimental: 1.3 Thermal Gravimetric Analyzer (TGA)
Instrument Model: TA Q5000 thermal gravimetric analyzer
Detection method: samples (2 mg to 5 mg) were placed in a TGA platinum crucible for detection, and heated from room temperature to 210° C. with a heating rate of 10° C./min under the condition of 25 mL/min N2.

[10] = Solubility test of the crystal form A; type: physicochemical; settings: thermodynamic from solid, room temperature
Experimental: Experimental Method: about 2.0 mg sample was weighed and placed into a 1.5 mL borosilicate glass bottle, followed by addition of the following solvents with a pipetting gun respectively, and appropriate ultrasonic treatment was performed for dissolving. The test was carried out at room temperature, and the dissolution was detected by naked eye.

[11] = KPC-2, 8 strains, enzyme inhibitor fixed at 4 g/mL (so in the source)
[12] = OXA-181, 7 strains, enzyme inhibitor fixed at 4 g/mL (so in the source)

pKa [1]: 8.83
Crystal form ([2]; Acetone): Crystal form A
Crystal form ([2]; Acetonitrile): Crystal form A
Crystal form ([2]; Cyclohexane): Crystal form A
Crystal form ([2]; Ethanol): Crystal form A
Crystal form ([2]; Ethanol-water (volume ratio 1:1)): Crystal form A
Crystal form ([2]; Ethanol-water (volume ratio 3:1)): Crystal form A
Crystal form ([2]; Ethyl acetate): Crystal form A
Crystal form ([2]; Isopropanol-water (volume ratio 1:1)): Crystal form A
Crystal form ([2]; Methanol): Crystal form A
Crystal form ([2]; Methanol-water (volume ratio 1:1)): Crystal form A
Crystal form ([2]; Methanol-water (volume ratio 3:1)): Crystal form A
Crystal form ([2]; Tetrahydrofuran): Crystal form A
Crystal form ([2]; Water): Crystal form A
Crystal form ([3]; Acetone-water (volume ratio 1:2)): Crystal form A
Crystal form ([3]; Acetonitrile-water (volume ratio 1:1)): Crystal form A
Structure (SMILES): N=C(N)NOCCONC(=O)C1CCC2CN1C(=O)N2OS(=O)(=O)O (stereo not drawn) [the compound of formula (I)]
antibacterial activity (conclusion) ([4]; in combination with an antibiotic, KPC-2 type): strong antibacterial activity
inhibitory activity compared with avibactam ([5]; NDM-1 type carbapenemase-producing bacteria): significantly better than that of avibactam
antibacterial activity (conclusion) ([5]; in combination with an antibiotic, NDM-1 type): strong antibacterial activity
antibacterial activity (conclusion) ([6]; in combination with an antibiotic, OXA-181 type): strong antibacterial activity
reduction of the amount of bacterial load in the lung versus the reference group of OP-0595 ([7]; at two different doses (25 & 6.25 mpk; 50 & 12.5 mpk)): 0.5-1.5 logs
potency compared with OP-0595 [7]: significantly more potent than the reference compound OP-0595

MIC50 [5]: 64 µg/mL
Structure (SMILES): C[C@H]1[C@H](NC(=O)/C(=N\OC(C)(C)C(=O)O)c2csc(N)n2)C(=O)N1S(=O)(=O)O [Aztreonam]

More lines, now with the values behind:

Structure (SMILES): CC(C)(O/N=C(\C(=O)N[C@@H]1C(=O)N2C(C(=O)[O-])=C(C[n+]3ccccc3)CS[C@H]12)c1csc(N)n1)C(=O)O [Ceftazidime]
drug resistance rate ([4]; KPC-2, 8 strains): 100
sensitive rate ([4]; KPC-2, 8 strains): 0
MIC range [4, 11]: 64 to 128 µg/mL
MIC50 [4, 11]: > 128 µg/mL
MIC90 ([4]; KPC-2, 8 strains, enzyme inhibitor fixed at 4 g/mL (so in the source), read-out: MIC90): > 128 µg/mL
MIC50 [5]: > 128 µg/mL
MIC90 [5]: > 128 µg/mL
drug resistance rate [5]: 100
sensitive rate [5]: 0
MIC range [5]: >128 µg/mL
MIC50 [6, 12]: > 128 µg/mL
MIC90 [6, 12]: > 128 µg/mL
drug resistance rate ([6]; OXA-181, 7 strains): 100
sensitive rate ([6]; OXA-181, 7 strains): 0

Structure (SMILES): N=C(N)NOCCONC(=O)C1CCC2CN1C(=O)N2OS(=O)(=O)O (stereo not drawn)
hygroscopic weight gain ΔW ([8]; DVS, 25° C./80% RH): 0.2910%
hygroscopicity scale ([8]; DVS, 25° C./80% RH): low hygroscopicity
crystal form after DVS (XRPD) ([8]; after DVS test): the crystal form has not changed
thermal stability ([9]; TGA): good thermal stability
TGA weight loss ([9]; heated to 194.61° C.): 0.5689%
solubility ([10]; aqueous with cosolvent or surfactant or cyclodextrin, Acetone-water (1:2)): 20500 to 34200 µg/mL (≈ 53.6 to 89.4 mM)
solubility ([10]; aqueous with cosolvent or surfactant or cyclodextrin, Acetonitrile-water (1:1)): > 103000 µg/mL
solubility ([10]; aqueous with cosolvent or surfactant or cyclodextrin, Ethanol-water (1:1)): 10100 to 20200 µg/mL (≈ 26.4 to 52.8 mM)
solubility ([10]; aqueous with cosolvent or surfactant or cyclodextrin, Ethanol-water (3:1)): < 2000 µg/mL
solubility ([10]; aqueous with cosolvent or surfactant or cyclodextrin, Isopropanol-water (1:1)): 6800 to 10200 µg/mL (≈ 17.8 to 26.7 mM)
solubility ([10]; aqueous with cosolvent or surfactant or cyclodextrin, Methanol-water (1:1)): 4100 to 5200 µg/mL (≈ 10.7 to 13.6 mM)
solubility ([10]; aqueous with cosolvent or surfactant or cyclodextrin, Methanol-water (3:1)): 2100 to 2600 µg/mL (≈ 5.49 to 6.8 mM)
solubility ([10]; organic solvent or mixture, 1,4-Dioxane): < 2100 µg/mL
solubility ([10]; organic solvent or mixture, 2-Methyltetrahydrofuran): < 2000 µg/mL
solubility ([10]; organic solvent or mixture, Acetone): < 1900 µg/mL
solubility ([10]; organic solvent or mixture, Acetonitrile): < 1900 µg/mL
solubility ([10]; organic solvent or mixture, Butanone): < 2000 µg/mL
solubility ([10]; organic solvent or mixture, Cyclohexane): < 2100 µg/mL
solubility ([10]; organic solvent or mixture, Ethanol): < 1900 µg/mL
solubility ([10]; organic solvent or mixture, Ethyl acetate): < 2000 µg/mL
solubility ([10]; organic solvent or mixture, Isopropanol): < 2000 µg/mL
solubility ([10]; organic solvent or mixture, Isopropyl acetate): < 2000 µg/mL
solubility ([10]; organic solvent or mixture, Methanol): < 1900 µg/mL
solubility ([10]; organic solvent or mixture, Methyl isobutyl ketone): < 2000 µg/mL
solubility ([10]; organic solvent or mixture, Methyl tert-butyl ether): < 2000 µg/mL
solubility ([10]; organic solvent or mixture, Tetrahydrofuran): < 2000 µg/mL
solubility ([10]; organic solvent or mixture, Toluene): < 2000 µg/mL
solubility ([10]; organic solvent or mixture, n-Butanol): < 2000 µg/mL
solubility ([10]; organic solvent or mixture, n-Heptane): < 2000 µg/mL
solubility ([10]; Water): 10200 to 20400 µg/mL (≈ 26.7 to 53.4 mM)

Structure (SMILES): C[C@@H](O)[C@H]1C(=O)N2C(C(=O)O)=C(S[C@@H]3CN[C@H](C(=O)N(C)C)C3)[C@H](C)[C@H]12 [Meropenem]
drug resistance rate ([4]; KPC-2, 8 strains): 100
sensitive rate ([4]; KPC-2, 8 strains): 0
MIC90 [4]: 128 µg/mL
MIC50 [4, 11]: 64 µg/mL
MIC50 [5]: 4 µg/mL
MIC90 [5]: 32 µg/mL
drug resistance rate [5]: 75
sensitive rate [5]: 0
MIC range [5]: 2 to 32 µg/mL
MIC50 [6, 12]: 0.5 µg/mL
MIC90 [6, 12]: 2 µg/mL
drug resistance rate ([6]; OXA-181, 7 strains): 0
sensitive rate ([6]; OXA-181, 7 strains): 85.7
MIC range [6, 12]: 0.5 to 2 µg/mL
